Active and inactive are the calls of the source.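 How the source made its calls: active means IC50 against T. cruzi CYP51 below a set limit; inactive means the rest.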

The target of the experiment is Sterol 14-alpha demethylase (Trypanosoma cruzi (strain CL Brener)) (UniProt Q7Z1V1). Description: T. cruzi sterol 14-alpha demethylase inhibition – biochemical, recombinant enzyme, mechanism study for T. cruzi antiparasitic project, dose response (AID 1159558).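 Further: enzyme in bacterial membranes with Anopheles gambiae CYP reductase and cytochrome b5 partners.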 Conditions: recombinant T. cruzi CYP51, BOMCC fluorescence.
Sequence of Sterol 14-alpha demethylase (Trypanosoma cruzi (strain CL Brener)) (Q7Z1V1 whole entry, looked up): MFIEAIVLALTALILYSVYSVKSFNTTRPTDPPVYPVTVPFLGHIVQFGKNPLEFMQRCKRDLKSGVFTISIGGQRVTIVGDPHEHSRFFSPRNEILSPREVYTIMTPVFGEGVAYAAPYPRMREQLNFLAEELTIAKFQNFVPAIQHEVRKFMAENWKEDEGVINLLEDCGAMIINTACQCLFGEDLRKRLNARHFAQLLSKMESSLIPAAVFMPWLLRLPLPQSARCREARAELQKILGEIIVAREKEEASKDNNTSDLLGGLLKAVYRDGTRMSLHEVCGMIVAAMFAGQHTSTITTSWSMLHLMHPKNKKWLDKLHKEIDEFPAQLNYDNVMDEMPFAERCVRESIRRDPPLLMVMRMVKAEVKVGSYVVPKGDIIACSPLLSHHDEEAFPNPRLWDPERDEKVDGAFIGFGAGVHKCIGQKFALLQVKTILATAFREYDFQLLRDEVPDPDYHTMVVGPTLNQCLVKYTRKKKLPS
With `Cc1cc2ncn(-c3ccc([N+](=O)[O-])cc3C#N)c2cc1C`, the IC50 is > 100 µM (inactive).

In the case of `O=C(CSc1ccc(-c2ccccn2)nn1)Nc1ccc(Cl)cc1`, the IC50 was > 100 µM (inactive).

Consider `O=c1[nH]cnc2c([C@@H]3O[C@H](CO)[C@@H](O)[C@H]3O)[nH]nc12`, for which the IC50 is > 100 µM (inactive).

Take `Clc1ccc(CN2CCN(C3=NCCN3)CC2)cc1Cl`: the IC50 was > 100 µM (inactive).

On to `O=[N+]([O-])c1cccc(Nc2cncc(-c3ccccc3CO)c2)c1`, for which the IC50 was 3.2 µM.

As for `Cn1nccc1-c1cc(OC(CN)c2ccccc2)cnc1-c1ccco1` (stereo not given), the IC50 is 0.063 µM.

As for `O=C(c1cccc(Nc2ncc(-c3ccc4c(c3)OCO4)cn2)c1)N1CCSC1`, the IC50 was 16 µM.

Regarding `CCc1cccc(-n2nc(OCC(=O)NC3CCCC3)c3cccnc32)c1`, the IC50 was > 100 µM (inactive).

Take `Cc1ccc2ccc(C(Nc3ccccn3)c3cccnc3)c(O)c2n1` (stereo not given): the IC50 was 0.05 µM.

On to `CN1CCC(N(C)c2nccc(N3CCN(C(=O)c4cccc(-c5cccnc5)c4)CC3)n2)CC1`, for which the IC50 is 1.6 µM.

With `COc1ccc(S(=O)(=O)Nc2ccc(CN3CCN(C(=O)c4cccc(C#N)c4)CC3)cc2)cc1`, the IC50 was > 100 µM (inactive).

On to `Cc1cc(Br)sc1CNCCCNc1cc(=O)c2ccccc2[nH]1`, for which the half-inhibitory concentration (IC50) was 63 µM.

As for `COc1ccc(C(C)(C)C)cc1S(=O)(=O)n1ccnc1`, the half-inhibitory concentration (IC50) is 0.0079 µM.

On to `CC(=O)Nc1ccc(CN2CCC(N3CC(c4ccccc4)(c4ccccc4)OCC3=O)CC2)cc1`, for which the IC50 is > 100 µM (inactive).

Take `CS(=O)(=O)c1ccccc1C(=O)N(Cc1ccccc1)c1ccccc1`: the IC50 was 20 µM.

Consider `Cc1[nH]n2c(=O)c3c(nc2c1-c1ccc(Br)cc1)CCCC3`, for which the IC50 was > 100 µM (inactive).

For the compound `N#CN1CC[C@@H](NC(=O)Nc2ccccc2Oc2ccccc2)C1`, the IC50 was > 100 µM (inactive).

With `CNc1cc(C)nc(C2CN(C(=O)c3n[nH]c4ccccc34)CCO2)c1` (stereo not given), the IC50 was > 100 µM (inactive).

With `COc1cccc(S(=O)(=O)Nc2ccc3c(c2)CC(N2CCC(NC(=O)C4CC4)CC2)C3)c1` (stereo not given), the IC50 was 63 µM.

As for `N#Cc1cccc(CNc2ccc(-c3cnn(CC4CC4)c(=O)c3C#N)cc2)c1`, the IC50 was 6.3 µM.

`COc1ccccc1C=CCN1C[C@H]2CCC[C@@H](C1)C2(O)c1cccnc1` (stereo not given in full): the half-maximal inhibitory concentration (IC50) is 0.13 µM.

With `O=c1cc(NCCCNC2CCOc3c(I)cc(Cl)cc32)[nH]c2ccccc12` (stereo not given), the IC50 was 16 µM.

Turning to `Cc1cc(N2CCc3ccccc3C2)nc(Nc2ccc(S(=O)(=O)N3CCOCC3)cc2)n1`, the IC50 was > 100 µM (inactive).

`CCN(CC)S(=O)(=O)c1ccc(C(=O)Nc2cc(C)nn2-c2nc(C)c(C)c(=O)[nH]2)cc1`: the IC50 is > 100 µM (inactive).

On to `O=C1CSC(c2cccnc2)N1c1ccc(Cl)cc1Cl` (stereo not given), for which the IC50 was 0.16 µM.

Take `Cc1ccc(-c2csc(NC(=O)C=Cc3ccc(S(=O)(=O)N4CCOCC4)cc3)n2)o1`: the concentration for half-maximal inhibition (IC50) is 20 µM.

Regarding `CN(Cc1nc2c(C(=O)N3CCN(Cc4ccccc4)CC3)cccc2[nH]1)C1CCCc2cccnc21` (stereo not given), the IC50 is 40 µM.

Consider `c1ccc2[nH]c(-c3ccc(N4CCCC4)nc3)nc2c1`, for which the IC50 is > 100 µM (inactive).

In the case of `Cc1[nH]c2ccccc2c(=O)c1Cc1c(C)[nH]c2ccccc2c1=O`, the IC50 is > 100 µM (inactive).

For `Cc1cccc(N2CCCN(Cc3c[nH]c4ccccc34)CC2)n1`, the IC50 is > 100 µM (inactive).

In the case of `Cc1nn2c(NCCCO)c3c(nc2c1-c1cccs1)CCC3`, the IC50 was 25 µM.

Regarding `CC(C)(C)c1csc(NC(=O)c2ccc([N+](=O)[O-])s2)n1`, the concentration for half-maximal inhibition (IC50) was 7.9 µM.

On to `COc1cccc(C(=O)[C@H]2C[C@@H]2CN(Cc2cccnc2)Cc2cccnc2)c1`, for which the concentration for half-maximal inhibition (IC50) is 0.063 µM.

`NC(=O)c1ccc(-c2cccc(OCCN3CCN(C4CCCCC4)CC3)c2)cc1`: the half-inhibitory concentration (IC50) was 40 µM.

Turning to `O=C(NCc1ccc(-n2cccc2)cc1)c1nc(Cn2ccc([N+](=O)[O-])n2)no1`, the IC50 was > 100 µM (inactive).

On to `COc1cc(OC)cc(C(NS(=O)(=O)c2ccc(Cl)c(C(F)(F)F)c2)c2nccn2C)c1` (stereo not given), for which the IC50 is 32 µM.

For the compound `COCc1cc(Nc2ccccc2)nc(-c2ccccn2)n1`, the IC50 was > 100 µM (inactive).

As for `O=C(C1CCCCC1)N1CCN(c2nnc(-c3ccccc3)c3ccccc23)CC1`, the IC50 was > 100 µM (inactive).

For the compound `O=C(CN(Cc1ccccn1)Cc1ccccn1)NCc1ccc(-c2csnn2)cc1`, the IC50 is 40 µM.

Turning to `CC(C)c1nn(-c2nc(N)nc(-c3ccccn3)n2)c(N)c1C1CCCCC1`, the IC50 is 3.2 µM.

Take `Cc1c(CNC(=O)c2ccc(Cn3cc(Cl)c([N+](=O)[O-])n3)cc2)cnn1C`: the IC50 was > 100 µM (inactive).

In the case of `O=C(NCCCn1cnc2ccccc21)c1ccc(NC(=O)c2ccco2)cc1`, the IC50 was 16 µM.

For the compound `O=C(NCCc1ccccc1Cl)c1cccn1-c1cccnc1`, the IC50 was 0.079 µM.

For `CC(C)(C)Nc1nc(-c2ccccn2)nc2ccccc12`, the IC50 is > 100 µM (inactive).

Regarding `COc1ccccc1-n1c(SCC(=O)Nc2ccc3c(c2)OCO3)nc2c(c1=O)SCC2`, the half-maximal inhibitory concentration (IC50) was 63 µM.

As to `O=C(Nc1ccc(C(=O)N2CCCC2c2ccc3c(c2)OCCCO3)cc1)c1ccco1` (stereo not given), the half-maximal inhibitory concentration (IC50) was 63 µM.

Take `Cc1[nH]nc2c1C(c1ccc(OCc3ccccc3F)cc1)SCC(=O)N2` (stereo not given): the IC50 is > 100 µM (inactive).

For `COc1ccc(C)cc1-c1csc(NC(=O)C(C)n2ccnc2)n1` (stereo not given), the IC50 is 0.04 µM.

On to `CC(C)CC(=O)NC(c1cccs1)c1ccc2cccnc2c1O` (stereo not given), for which the half-inhibitory concentration (IC50) was 50 µM.

For `COc1ccc(C(C)N(C)c2ncc3c(N)nc(N)nc3n2)cc1F` (stereo not given), the IC50 was > 100 µM (inactive).

Consider `COc1ccnc2[nH]cc(-c3cc(C(=O)N[C@H](CO)c4ccccc4)co3)c12`, for which the IC50 was 0.79 µM.

Consider `CC(C)(C)Nc1nc(Nc2ccc3c(c2)CS(=O)(=O)C3)nc2[nH]ccc12`, for which the 50% inhibitory concentration (IC50) is 25 µM.

Take `O=S(=O)(c1ccccc1C(F)(F)F)N1CCN(Cc2ccc(-n3ccnc3)cc2)CC1`: the IC50 was 0.1 µM.

In the case of `COc1ccc(C2=NCC(CSc3nnc(-c4ccc5c(c4)OCO5)o3)S2)cc1` (stereo not given), the IC50 is 10 µM.

Consider `CNc1cncc(C2CCCN2C(=O)Cc2coc3cc(C)ccc23)n1` (stereo not given), for which the half-maximal inhibitory concentration (IC50) was 0.025 µM.

With `CNc1nc(C)nc(N2CCc3cc(C(=O)NCc4ccc(-c5nccn5C)cc4Cl)ccc32)n1`, the half-inhibitory concentration (IC50) is 1.6 µM.

With `O=C(Nc1ccc(S(=O)(=O)N2CCCC2)cc1)c1ccc([N+](=O)[O-])s1`, the IC50 is > 100 µM (inactive).

Turning to `Cc1c(Nc2cc(C3CC3)[nH]n2)ccc(C#N)c1Cl`, the IC50 is 20 µM.

In the case of `CCOC(=O)c1cn[nH]c1S(=O)(=O)N1CCC1c1ccccc1` (stereo not given), the IC50 was 50 µM.

Take `O=C(Nc1n[nH]c(-c2ccccn2)n1)C1CC1c1ccccc1` (stereo not given): the IC50 is > 100 µM (inactive).

On to `COc1ccc(-c2cnc(NC(=O)c3ccc(F)cc3)n2C)cc1`, for which the IC50 was 10 µM.

Take `NCc1csc(Nc2cc(Oc3ccccc3)ncn2)n1`: the half-maximal inhibitory concentration (IC50) is 0.32 µM.

In the case of `O=C(NCCc1csc(-c2cccc(F)c2)n1)c1ccco1`, the IC50 was > 100 µM (inactive).

As to `O=C(Nc1cccc(S(=O)(=O)Nc2ccc(Br)cc2)c1)c1ccc([N+](=O)[O-])s1`, the IC50 was 2.5 µM.

On to `O=S(=O)(NCC(c1cccnc1)N1CCN(c2ccc(F)cc2)CC1)c1cccs1` (stereo not given), for which the IC50 was 0.04 µM.

`CNC(=O)Oc1ccc(C(=O)NCc2ccccc2)cc1OC(=O)NC`: the IC50 is > 100 µM (inactive).

`COc1cnc2ccc(=O)n(CCN3CCC(NC(=O)c4ccc(Cl)cc4)CC3)c2c1`: the IC50 was 10 µM.

Take `N#Cc1cccc(CN2CCC(N(Cc3cccnc3)C(=O)c3cc(F)c(F)cc3F)CC2)c1`: the IC50 is 0.05 µM.

As to `Cc1ccc2c(c1)SC(C(=O)Nc1n[nH]c(-c3ccccn3)n1)C2` (stereo not given), the IC50 is > 100 µM (inactive).

On to `CN(C)S(=O)(=O)c1ccc(-c2cnc(N)c(-c3nc4ccc(F)cc4[nH]3)c2)cc1`, for which the IC50 is 40 µM.

On to `Cc1cn[nH]c1C1CCCN(Cc2nc3ccccc3n2C)C1` (stereo not given), for which the half-maximal inhibitory concentration (IC50) is 1.3 µM.

For the compound `Cc1ccccc1NS(=O)(=O)c1ccc2[nH]cc(C(=O)NC3CCCC3)c(=O)c2c1`, the IC50 is 13 µM.

On to `CC(C)C[C@H](NC(=O)c1csc(-c2cccs2)n1)C(=O)NC1(C#N)CC1`, for which the IC50 is > 100 µM (inactive).

Regarding `CS(=O)(=O)c1cccc(-c2cnc(N)c3c(-c4ccc(CO)cc4)csc23)c1`, the half-inhibitory concentration (IC50) was 3.2 µM.

On to `CCS(=O)(=O)c1cccc(C(=O)Nc2nc(-c3ccccn3)cs2)c1`, for which the IC50 is 63 µM.

For the compound `Cc1ccccc1NS(=O)(=O)c1ccc2[nH]cc(C(=O)NC3CCCC(C)C3C)c(=O)c2c1` (stereo not given), the half-maximal inhibitory concentration (IC50) is 5 µM.

Take `O=C(NCC1CCCCN1C(=O)c1cccc2ccccc12)c1ccccc1` (stereo not given): the IC50 was > 100 µM (inactive).

As for `O=C(NCCc1ccccn1)C(c1cn[nH]c1)N1CCN(c2ccc(Cl)c(Cl)c2)CC1` (stereo not given), the IC50 is 0.13 µM.

Turning to `Nc1nonc1-c1nc2cncc(C(=O)N3CC[C@H](N)C3)c2n1CC1CC1`, the half-maximal inhibitory concentration (IC50) was 13 µM.

For the compound `CN(Cc1nnnn1C1CCN(Cc2ccc(-n3ccnc3)cc2)CC1)c1ccc(F)cc1F`, the half-maximal inhibitory concentration (IC50) was 0.13 µM.

On to `N#Cc1cc([N+](=O)[O-])ccc1NC1CCCCCC1`, for which the IC50 was > 100 µM (inactive).

For the compound `CC(C)c1sc(Cl)nc1C(=O)NCCc1nc(C(=O)Nc2ccc3c(c2)OCO3)cs1`, the IC50 was 7.9 µM.

As to `O=C(COc1ccccc1)Nc1ccccc1C(=O)Nc1nccs1`, the IC50 is > 100 µM (inactive).

With `O=C(COc1ncnc2cc([N+](=O)[O-])ccc12)NC(=O)NC1CCCCC1`, the IC50 is > 100 µM (inactive).

For the compound `CCCn1c(NC(=O)CCn2cc(Br)cn2)nc2ccccc21`, the IC50 is 10 µM.

The record behind these values is PubChem BioAssay AID1159558 (GlaxoSmithKline (GSK), 2015).
